Measured values: ChEMBL document CHEMBL3507680, “University of Dundee, Gates Library screen for HepG2 cell viability”

Assay: Human HepG2 cell viability assay in 384 well format
Type: toxicity, cell-based
Parameters: dose 125 nL, time 70.5 hour; concentration not given beside the values
Details: HepG2 cells, read-out: Inhibition

Compound | cytotoxicity at 70.5 h
CC(CN1CCOCC1)OC(=O)c1ccccc1Cl (stereo not given) | -19.2%
Cc1ccc2[nH]c3c(c2c1)CN(C(=O)CN(C)CC1OCCO1)CC3 | -1.1%
COc1ccc(NC(=O)C2CC(=O)n3cnnc3S2)cc1 (stereo not given) | 2.23%
Cc1ccc2c(c1)c(Sc1ccccc1)c(CC(=O)O)n2C | 1.6%
COC(=O)COn1c(SCC(=O)OC)nc2ccccc2c1=O | -6.15%
COC(=O)[C@@H](NC(=O)Nc1ccc(C(C)=O)cc1)C(C)C | 13.3%
CCCc1ncc(C(=O)c2ccc(OC)cc2)n1C | 14.7%
O=C(CN1CCN(C(=O)c2ccccc2)CC1)Nc1ccc(Br)cn1 | -8.87%
Cn1c2ccccc2c2ncn(CCCN3CCOCC3)c(=O)c21 | 12.2%
COc1cccc(NC(=O)C2CC(=O)n3cnnc3S2)c1 (stereo not given) | 2.31%
N#Cc1c2n(c3c(N)ncnc13)CCCCC2 | 16.8%
CCN(CC)C(=O)CSc1nnc(CCNC(=O)OC(C)(C)C)o1 | -11.3%
CC(C)[C@H](NC(=O)N1CCC(Cc2ccccc2)CC1)C(=O)O | -8.02%
CCC1(CC)C(=O)NC(=O)N/C1=N/c1cccc(OC)c1 | 26.5%
Cc1cc2ccccc2n1CC(=O)N[C@@H](C)C(=O)O | -19.5%
CSCC[C@H](NC(=O)CCn1cc(C(C)=O)c2ccccc21)C(=O)O | -8.28%
COc1cccc(-c2nc(C)c(C(=O)N[C@@H](CC(C)C)C(=O)O)s2)c1 | -18.1%
Cn1ccc2c(C(=O)N3CC[C@@]4(O)CCCC[C@H]4C3)cccc21 | 0.292%
COc1cccc2c1ccn2CCNC(C)=O | -16.2%
COc1cc2nc(C)n(CC(=O)NCC(C)C)c(=O)c2cc1OC | -15.9%
COc1cc2nc(C)n(CC(=O)NCCN(C)C)c(=O)c2cc1OC | -17.2%
COc1ccc(C2CC(=O)Oc3cc(C)[nH]c(=O)c32)cc1O (stereo not given) | -19.6%
COc1cc(C2CC(=O)Oc3cc(C)[nH]c(=O)c32)ccc1OCC(=O)O (stereo not given) | -14.1%
O=C(NCCO)c1cc(-c2ccc3c(c2)CCO3)n[nH]1 | 18%
CN(C)CCCNC(=O)c1cc(-c2ccc3c(c2)CCO3)n[nH]1 | 10.7%
CC1(CO)COC(Cc2ccc(Cl)cc2)=N1 (stereo not given) | 21%
CC[S+](CC)[c-]1c(=O)[nH]c(=O)n(CCc2ccc(F)cc2)c1=O | 3.7%

Compound | cytotoxicity at 70.5 h
C[S+](C)[c-]1c(=O)[nH]c(=O)n(CCc2ccc(F)cc2)c1=O | -2.07%
CN1CCC(N(C)C(=O)Nc2ccc(Cl)cc2)CC1 | -2.16%
COC(=O)COn1c(OC)nc2ccccc2c1=O | -11.7%
O=C1Nc2ccccc2/C1=C1\CCCCN1 | -10.3%
CSCC[C@H](NC(=O)N1CCC(Cc2ccccc2)CC1)C(=O)O | -13.4%
CCNCCC(Cc1ccccc1)c1ccco1 (stereo not given) | -8.72%
CC1=C(C#N)C(=O)N(C)C(=O)/C1=C\C1=Cc2ccccc2OC1 | 8.21%
COCCCN(Cc1ccccn1)S(=O)(=O)c1ccc(OC)cc1 | -14.1%
Cn1nnc2c(sc3nc(N4CCOCC4)c4c(c32)CCC4)c1=O | -16%
CC[C@H](C)[C@H](NC(=O)c1ccc(-n2cnnn2)cc1)C(=O)OC | 10.1%
CSCC[C@@H](CO)NC(=O)c1ccc2nc(NS(C)(=O)=O)sc2c1 | -1%
Cc1nc(-c2cnn(C)c2)nc2c1CN(C(=O)c1ccc[nH]1)CC2 | -6.12%
CS(=O)(=O)N1C[C@H]2CCC[C@@]2(COCC2CCOCC2)C1 | -4.48%
CCc1ccc2c(C3CN(C(C)=O)C3)ncn2c1 | -3.55%
CC(C)N1CCc2ncn(C)c2C1C(=O)NCCN1CCCC1 (stereo not given) | -8.41%
O=C(c1ncccn1)N1C[C@@H]2CN(CC3CC3)CCO[C@@H]2C1 | -13.4%
CS(=O)(=O)N1CCc2ccc(=O)n(CC3CCOCC3)c2CC1 | -7.42%
Cc1ccc2c(c1)C1(CCNCC1)CC2OCC1CC1 (stereo not given) | -1.43%
COCCC(=O)N1Cc2[nH]nc(COc3cccnc3)c2C1 | -13.5%
CN(C)C(=O)CN1C[C@H]2CCN(C(=O)c3ccccc3)CC[C@H]2S1(=O)=O | -10.6%
CC(C)n1cnc(C2CN(C)c3ccc(C(=O)NC4CCCC4)cc32)n1 (stereo not given) | -5.54%
CN(Cc1ccccc1)CC1CC2(CO1)CN(c1nncs1)C2 (stereo not given) | -8.78%
FC1(F)CCNCC12CCN(c1ccccn1)C2 (stereo not given) | 9.9%
Fc1cnc(N2CCCn3c(nnc3Cn3cccn3)C2)nc1 | 12.7%
CC(=O)NCC(=O)NC1CCc2c(ccc(=O)n2CC2CC2)C1 (stereo not given) | -1.98%
CC(CN1CCOCC1)OC(=O)c1ccccc1I (stereo not given) | -15.6%
CCC(C)[C@H](N)c1nnc(SCC(=O)Nc2ccc(Br)cc2)o1 (stereo not given in full) | -13.2%

Compound | cytotoxicity at 70.5 h
CSCC[C@H](N)c1nnc(SCC(=O)Nc2ccc(Br)cc2)o1 | -18.7%
N[C@@H](Cc1ccccc1)c1nnc(S(=O)(=O)Cc2ccc(Cl)cc2)o1 | 12.7%
CN(C)CCCNCCC(c1ccccc1)C1CCOC(C)(C)C1 (stereo not given) | -3.41%
CCN(CC)c1ccc2ccc(C(=O)N3CCCCO3)cn12 | 3.7%
Cn1ccc(C(=O)N2C[C@@H]3CN(CC4CC4)CCO[C@@H]3C2)n1 | 11.6%
Cc1cccc(COC[C@@]23CCC[C@@H]2CN(S(=O)(=O)N(C)C)C3)n1 | -4.49%
CS(=O)(=O)N1C[C@@H]2COC[C@]2(CN2CCOCC2)C1 | -8.04%
CCN1C[C@@H]2CN(c3cc(OC)ncn3)CCC[C@]2(C(=O)O)C1 | -10.9%
COc1cc(N2CCC[C@]3(C(=O)O)CN(C(C)C)C[C@@H]3C2)ncn1 | -3.84%
O=C(c1c[nH]cn1)N1CCC(F)(F)C2(CCN(c3cccc(F)c3)C2)C1 (stereo not given) | -7.39%
COCCN1CCC12CCN(c1ncccn1)C2 (stereo not given) | -5.32%
CC(=O)N1CCCC1c1nnn2cc(-c3ccncc3)ccc12 (stereo not given) | -5.32%
CC(=O)N1CCCC1c1nnn2cc(Nc3ccccc3)ccc12 (stereo not given) | -5.52%
CN1CCC2(COCCN(Cc3ccc4c(c3)OCO4)C2)C1 (stereo not given) | 13.5%
Cc1noc(C)c1CN1CCc2ncc(CN(C)C)n2CC1 | -8.78%
O=C(O)c1cc2c(nc1N1CCCC1)CCN(C1CCOCC1)CC2 | 12%
c1cnc2c(c1)CN(C1CCOC1)CCN2CC1CC1 (stereo not given) | -8.62%
O=C(O)c1cc2c(nc1NCC1CC1)CCN(C1CCOC1)CC2 (stereo not given) | -4.26%
c1coc(CN2C[C@@H]3OCCN(CCN4CCCC4)[C@@H]3C2)c1 | -7.43%
Fc1ccccc1CN1C[C@@H]2CN(Cc3cccnc3)CCO[C@@H]2C1 | -11.8%
COc1ccccc1CN1C[C@@H]2CN(Cc3cccnc3)CCO[C@@H]2C1 | 12.8%
Fc1ccc(CN2C[C@@H]3OCCN(CCN4CCCC4)[C@@H]3C2)cc1 | -6.53%
Cc1nc(CN2CCN(C3CCOC3)Cc3cccnc32)cs1 (stereo not given) | -0.337%
O=C(O)c1cc2c(nc1-c1ccncc1)CCN(C1CCOC1)CC2 (stereo not given) | -4.07%
Cn1nccc1-c1ncc2c(c1C(=O)O)CCN(Cc1ccccc1)C2 | 11.6%
COc1no[n+]([O-])c1-c1ccccc1 | 2.46%
